Data taken from the supplement of paper PMC8976852.
± gives the standard deviation of the averaged measurements.

Legend:
Test in all cases: activity (1 - area under the dose-response curve within the screened range) (fraction); higher = more sensitive
Settings in all cases: treatment time: 72 h
[1] = tested on: HCM-SANG-0266-C20 (colorectal cancer organoid)
Description: (§1)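 Patient-derived cancer organoids (colorectal and oesophageal, HCM-SANG models) were grown for up to 6 months in 5% or 80% ECM (BME-2), then seeded in 384-well plates on an ECM layer and treated with 72 compounds for 3 days. Each compound used a 7-point half-log dilution series spanning a 1000-fold range, in technical triplicate and biological duplicate. Dose-response curves were fitted with a non-linear mixed effects model; fits with RMSE > 0.3 were removed, and activity = 1 - AUC within the screened dose range (0 = no activity, 1 = maximum).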

[2] = tested on: HCM-SANG-0270-C20 (colorectal cancer organoid)
Description: as §1

[3] = tested on: HCM-SANG-0291-C15 (oesophageal cancer organoid)
Description: as §1

[4] = tested on: HCM-SANG-0532-C20 (colorectal cancer organoid)
Description: as §1

[5] = ECM percentage in culture prior to screening 5 %
[6] = ECM percentage in culture prior to screening 80 %

Row | Structure (SMILES) | activity [1, 5] | activity [1, 6] | activity [2, 5] | activity [2, 6] | activity [3, 5] | activity [3, 6] | activity [4, 5] | activity [4, 6]
1 | CCN(CC)CCCCNc1ncc2cc(-c3cc(OC)cc(OC)c3)c(NC(=O)NC(C)(C)C)nc2n1 | 0.0628 ± 0.031 | 0.0486 ± 0.023 | 0.0417 ± 0.029 | 0.0362 ± 0.015 | 0.0598 ± 0.031 | 0.0496 ± 0.0089 | 0.0936 ± 0.015 | 0.0708 ± 0.015
2 | CCc1cncnc1N1CCN(Cc2nc3ccc(C(F)(F)F)cc3[nH]2)CC1 | 0.206 ± 0.033 | 0.155 ± 0.029 | 0.127 ± 0.026 | 0.162 ± 0.031 | 0.0688 ± 0.038 | 0.0744 ± 0.019 | 0.222 ± 0.04 | 0.426 ± 0.041
3 | COc1cc2c(Nc3ccc(NC(=O)c4ccccc4)cc3)ncnc2cc1OCCCN1CCOCC1 | 0.228 ± 0.027 | 0.212 ± 0.038 | 0.102 ± 0.054 | 0.106 ± 0.06 | 0.0708 ± 0.031 | 0.0657 ± 0.034 | 0.184 ± 0.07 | 0.166 ± 0.022
4 | C[C@@]1(C(=O)Nc2ccc(F)nc2)CCCN1c1nc(Nc2cc(C3CC3)n[nH]2)c2cccn2n1 | 0.455 ± 0.056 | 0.41 ± 0.056 | 0.18 ± 0.086 | 0.22 ± 0.11 | 0.126 ± 0.039 | 0.172 ± 0.056 | 0.279 ± 0.091 | 0.302 ± 0.035
5 | Cc1cccc(-c2[nH]c(C(C)(C)C)nc2-c2ccc3c(c2)OCO3)n1 | 0.0398 ± 0.022 | 0.0534 ± 0.016 | 0.0741 ± 0.023 | 0.0613 ± 0.046 | 0.0256 ± 0.0074 | 0.0336 ± 0.018 | 0.0437 ± 0.015 | 0.0531 ± 0.017
6 | Cn1cc(C2=C(c3ccc(Cl)cc3Cl)C(=O)NC2=O)c2ccccc21 | 0.0916 ± 0.037 | 0.0697 ± 0.056 | 0.0629 ± 0.02 | 0.0482 ± 0.021 | 0.0549 ± 0.019 | 0.0522 ± 0.022 | 0.0778 ± 0.033 | 0.0951 ± 0.05
7 | O=C(Nc1ccc2[nH]nc(-c3ccncc3)c2c1)[C@@H]1CCN(CC(=O)N2CCN(c3ccc(-c4ncccn4)cc3)CC2)C1 | 0.388 ± 0.086 | 0.155 ± 0.12 | 0.159 ± 0.078 | 0.0818 ± 0.065 | 0.236 ± 0.027 | 0.224 ± 0.055 | 0.201 ± 0.13 | 0.272 ± 0.056
8 | O=c1cc(-c2cccc3c2Sc2ccccc2S3)oc(N2CCOCC2)c1 | 0.0362 ± 0.021 | 0.0433 ± 0.027 | 0.0345 ± 0.015 | 0.0384 ± 0.0084 | 0.068 ± 0.034 | 0.0493 ± 0.031 | 0.0709 ± 0.021 | 0.037 ± 0.01
9 | O=c1[nH]cc(F)c(=O)[nH]1 [5-Fluorouracil] | 0.137 ± 0.068 | 0.12 ± 0.061 | 0.123 ± 0.031 | 0.103 ± 0.075 | 0.0848 ± 0.043 | 0.063 ± 0.035 | 0.0766 ± 0.035 | 0.121 ± 0.044
10 | CN(C)CCCOc1ccc(-c2ccc3ncc4c(c3c2)n(C2CCOCC2)c(=O)n4C)cn1 [AZD0156] | 0.0443 ± 0.024 | 0.0475 ± 0.024 | 0.0254 ± 0.013 | 0.0244 ± 0.0078 | 0.0259 ± 0.013 | 0.0316 ± 0.022 | 0.0433 ± 0.022 | 0.0427 ± 0.017
11 | COc1cc(CCc2cc(NC(=O)c3ccc(N4CC(C)NC(C)C4)cc3)n[nH]2)cc(OC)c1 (configuration not stated) [AZD4547] | 0.0268 ± 0.015 | 0.0233 ± 0.0077 | 0.0358 ± 0.023 | 0.0323 ± 0.017 | 0.0191 ± 0.001 | 0.0289 ± 0.014 | 0.0579 ± 0.039 | 0.0368 ± 0.013
12 | Cc1cc([C@@H](C)Nc2ccccc2C(=O)O)c2nc(N3CCOCC3)cc(=O)n2c1 [AZD6482] | 0.042 ± 0.03 | 0.0421 ± 0.017 | 0.0274 ± 0.021 | 0.0245 ± 0.008 | 0.0199 ± 0.0028 | 0.0269 ± 0.0093 | 0.0367 ± 0.021 | 0.0291 ± 0.011
13 | C[C@@H]1COCCN1c1cc(C2([S@](C)(=N)=O)CC2)nc(-c2cc[nH]c3nccc2-3)n1 [AZD6738] | 0.185 ± 0.037 | 0.178 ± 0.033 | 0.09 ± 0.039 | 0.0864 ± 0.052 | 0.199 ± 0.027 | 0.211 ± 0.037 | 0.116 ± 0.065 | 0.108 ± 0.026
14 | NC(=O)Nc1cc(-c2cccc(F)c2)sc1C(=O)N[C@H]1CCCNC1 [AZD7762] | 0.287 ± 0.041 | 0.232 ± 0.029 | 0.23 ± 0.049 | 0.199 ± 0.05 | 0.269 ± 0.016 | 0.248 ± 0.043 | 0.14 ± 0.056 | 0.177 ± 0.035
15 | COc1ccc(-c2ccc3c(N4CCOC[C@@H]4C)nc(N4CCOC[C@@H]4C)nc3n2)cc1CO [AZD8055] | 0.298 ± 0.097 | 0.251 ± 0.12 | 0.117 ± 0.043 | 0.0699 ± 0.062 | 0.076 ± 0.03 | 0.0634 ± 0.032 | 0.237 ± 0.076 | 0.301 ± 0.039
16 | CN(C)C/C=C/C(=O)Nc1cc2c(Nc3ccc(F)c(Cl)c3)ncnc2cc1O[C@H]1CCOC1 [Afatinib] | 0.308 ± 0.13 | 0.217 ± 0.11 | 0.311 ± 0.11 | 0.153 ± 0.13 | 0.414 ± 0.064 | 0.316 ± 0.06 | 0.171 ± 0.1 | 0.243 ± 0.07
17 | COc1cc(Nc2ncc3c(n2)-c2ccc(Cl)cc2C(c2c(F)cccc2OC)=NC3)ccc1C(=O)O [Alisertib] | 0.266 ± 0.08 | 0.31 ± 0.081 | 0.104 ± 0.078 | 0.124 ± 0.06 | 0.0593 ± 0.019 | 0.0714 ± 0.026 | 0.185 ± 0.063 | 0.148 ± 0.027
18 | Cc1nc(NC(=O)N2CCC[C@H]2C(N)=O)sc1-c1ccnc(C(C)(C)C(F)(F)F)c1 [Alpelisib] | 0.13 ± 0.052 | 0.0656 ± 0.019 | 0.036 ± 0.027 | 0.0216 ± 0.0057 | 0.0264 ± 0.0063 | 0.0261 ± 0.011 | 0.0918 ± 0.087 | 0.0904 ± 0.033
19 | CNC(=O)c1ccccc1Sc1ccc2c(/C=C/c3ccccn3)n[nH]c2c1 [Axitinib] | 0.147 ± 0.033 | 0.143 ± 0.047 | 0.125 ± 0.03 | 0.109 ± 0.037 | 0.0739 ± 0.021 | 0.056 ± 0.023 | 0.112 ± 0.021 | 0.135 ± 0.035
20 | CC[C@@H]1C(=O)N(C)c2cnc(Nc3ccc(C(=O)NC4CCN(C)CC4)cc3OC)nc2N1C1CCCC1 [BI-2536] | 0.439 ± 0.041 | 0.436 ± 0.036 | 0.305 ± 0.17 | 0.311 ± 0.11 | 0.429 ± 0.043 | 0.464 ± 0.06 | 0.292 ± 0.087 | 0.335 ± 0.046
21 | CC(C)C[C@H](NC(=O)[C@H](Cc1ccccc1)NC(=O)c1cnccn1)B(O)O [Bortezomib] | 0.201 ± 0.023 | 0.228 ± 0.015 | 0.16 ± 0.023 | 0.167 ± 0.03 | 0.208 ± 0.027 | 0.234 ± 0.034 | 0.201 ± 0.028 | 0.212 ± 0.031
22 | CC[C@@]1(O)C(=O)OCc2c1cc1n(c2=O)Cc2cc3ccccc3nc2-1 [Camptothecin] | 0.169 ± 0.031 | 0.147 ± 0.071 | 0.133 ± 0.028 | 0.0946 ± 0.022 | 0.262 ± 0.021 | 0.258 ± 0.022 | 0.106 ± 0.034 | 0.156 ± 0.023
23 | O=C(O)C1(C(=O)O)CCC1.[NH2-].[NH2-].[Pt+2] [Carboplatin] | 0.0268 ± 0.0076 | 0.0392 ± 0.024 | 0.0338 ± 0.02 | 0.0325 ± 0.013 | 0.0362 ± 0.017 | 0.0271 ± 0.011 | 0.0573 ± 0.015 | 0.0352 ± 0.013
24 | N.N.[Cl][Pt][Cl] [Cisplatin] | 0.0675 ± 0.021 | 0.08 ± 0.081 | 0.0701 ± 0.024 | 0.0677 ± 0.021 | 0.132 ± 0.023 | 0.151 ± 0.025 | 0.0676 ± 0.035 | 0.0959 ± 0.02
25 | C[C@@H](Oc1cc(-c2cnn(C3CCNCC3)c2)cnc1N)c1c(Cl)ccc(F)c1Cl [Crizotinib] | 0.144 ± 0.035 | 0.0852 ± 0.034 | 0.0695 ± 0.034 | 0.0648 ± 0.056 | 0.0562 ± 0.022 | 0.065 ± 0.022 | 0.101 ± 0.068 | 0.154 ± 0.04
26 | CC(C)(C)c1nc(-c2cccc(NS(=O)(=O)c3c(F)cccc3F)c2F)c(-c2ccnc(N)n2)s1 [Dabrafenib] | 0.138 ± 0.084 | 0.0841 ± 0.044 | 0.035 ± 0.012 | 0.0243 ± 0.0073 | 0.0243 ± 0.0054 | 0.0207 ± 0.0019 | 0.0306 ± 0.018 | 0.0604 ± 0.032
27 | Cn1c(=O)n(-c2ccc(C(C)(C)C#N)cc2)c2c3cc(-c4cnc5ccccc5c4)ccc3ncc21 [Dactolisib] | 0.254 ± 0.077 | 0.239 ± 0.092 | 0.123 ± 0.039 | 0.0768 ± 0.059 | 0.101 ± 0.035 | 0.0783 ± 0.027 | 0.193 ± 0.058 | 0.257 ± 0.025
28 | Cc1nc(Nc2ncc(C(=O)Nc3c(C)cccc3Cl)s2)cc(N2CCN(CCO)CC2)n1 [Dasatinib] | 0.129 ± 0.069 | 0.0743 ± 0.054 | 0.0518 ± 0.018 | 0.045 ± 0.018 | 0.0426 ± 0.021 | 0.0463 ± 0.017 | 0.0937 ± 0.048 | 0.0525 ± 0.021
29 | CC(=O)O[C@@]12CO[C@@H]1C[C@H](O)[C@@]1(C)C(=O)[C@H](O)C3=C(C)[C@@H](OC(=O)[C@H](O)[C@@H](NC(=O)OC(C)(C)C)c4ccccc4)C[C@@](O)([C@@H](OC(=O)c4ccccc4)[C@H]21)C3(C)C [Docetaxel] | 0.237 ± 0.033 | 0.19 ± 0.031 | 0.0873 ± 0.042 | 0.14 ± 0.08 | 0.161 ± 0.058 | 0.188 ± 0.05 | 0.128 ± 0.028 | 0.158 ± 0.017
